Source: ChEMBL document CHEMBL1201862, “PubChem BioAssay data set” (2004)
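A five-concentration, 48-hour dose response in 96-well plates underlies each endpoint, interpolated linearly between surrounding concentrations. GI50 = concentration required for 50% inhibition of growth.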 Active and inactive are the calls of the source. No stated cut-off is given here; in the data, active = GI50 up to about 1.1 µM and inactive = higher.

Columns and labels:
Assay in all cases: NCI tumour cell line growth inhibition, 48 h
OVCAR-4 = test system: OVCAR-4
SN12C = test system: SN12C
K562 = test system: K562
UO-31 = test system: UO-31
UACC-62 = test system: UACC-62
HOP-62 = test system: HOP-62
SK-MEL-5 = test system: SK-MEL-5
SK-MEL-2 = test system: SK-MEL-2
NCI-H226 = test system: NCI-H226
SF-295 = test system: SF-295
SF-539 = test system: SF-539
A498 = test system: A498
HOP-18 = test system: HOP-18
HCT-116 = test system: HCT-116
SW-620 = test system: SW-620
ACHN = test system: ACHN
COLO 205 = test system: COLO 205
DMS-114 = test system: DMS-114
Malme-3M = test system: Malme-3M
U-251 = test system: U-251
SK-MEL-28 = test system: SK-MEL-28
HL-60 = test system: HL-60
TK-10 = test system: TK-10
UACC-257 = test system: UACC-257
HOP-92 = test system: HOP-92
NCI-H460 = test system: NCI-H460
RPMI-8226 = test system: RPMI-8226
KM12 = test system: KM12
KM-20L2 = test system: KM-20L2
DMS-273 = test system: DMS-273
LOX IMVI = test system: LOX IMVI
EKVX = test system: EKVX
M14 = test system: M14
OVCAR-3 = test system: OVCAR-3
OVCAR-8 = test system: OVCAR-8
A549 = test system: A549
HCC 2998 = test system: HCC 2998
SNB-75 = test system: SNB-75
CCRF-CEM = test system: CCRF-CEM
MOLT-4 = test system: MOLT-4
SNB-78 = test system: SNB-78
SR = test system: SR
OVCAR-5 = test system: OVCAR-5
DLD-1 = test system: DLD-1
SK-OV-3 = test system: SK-OV-3
NCI-H23 = test system: NCI-H23
HT-29 = test system: HT-29
HCT-15 = test system: HCT-15
XF498 = test system: XF498
786-0 = test system: 786-0
SNB-19 = test system: SNB-19
IGROV-1 = test system: IGROV-1
LXFL 529 = test system: LXFL 529
CAKI-1 = test system: CAKI-1
M19-MEL = test system: M19-MEL
NCI-H522 = test system: NCI-H522
RXF 393 = test system: RXF 393
SF-268 = test system: SF-268

## COc1cc(O)c2c(c1)O[C@@H]1OCC[C@H]21
OVCAR-4
  GI50: > 100 µM (inactive)
SN12C
  GI50: > 100 µM (inactive)
K562
  GI50: > 100 µM (inactive)
UO-31
  GI50: > 100 µM (inactive)
UACC-62
  GI50: > 100 µM (inactive)
HOP-62
  GI50: > 100 µM (inactive)
SK-MEL-5
  GI50: > 100 µM (inactive)
SK-MEL-2
  GI50: > 100 µM (inactive)
NCI-H226
  GI50: > 100 µM (inactive)
SF-295
  GI50: > 100 µM (inactive)
SF-539
  GI50: > 100 µM (inactive)
A498
  GI50: > 100 µM (inactive)
HOP-18
  GI50: > 100 µM (inactive)
HCT-116
  GI50: > 100 µM (inactive)
SW-620
  GI50: > 100 µM (inactive)
ACHN
  GI50: > 100 µM (inactive)
COLO 205
  GI50: > 100 µM (inactive)
DMS-114
  GI50: > 100 µM (inactive)
Malme-3M
  GI50: > 100 µM (inactive)
U-251
  GI50: > 100 µM (inactive)
SK-MEL-28
  GI50: > 100 µM (inactive)
HL-60
  GI50: > 100 µM (inactive)
TK-10
  GI50: > 100 µM (inactive)
UACC-257
  GI50: > 100 µM (inactive)
HOP-92
  GI50: > 100 µM (inactive)
NCI-H460
  GI50: > 100 µM (inactive)
RPMI-8226
  GI50: > 100 µM (inactive)
KM12
  GI50: > 100 µM (inactive)
KM-20L2
  GI50: > 100 µM (inactive)
DMS-273
  GI50: > 100 µM (inactive)
LOX IMVI
  GI50: > 100 µM (inactive)
EKVX
  GI50: > 100 µM (inactive)
M14
  GI50: > 100 µM (inactive)
OVCAR-3
  GI50: > 100 µM (inactive)
OVCAR-8
  GI50: > 100 µM (inactive)
A549
  GI50: > 100 µM (inactive)
HCC 2998
  GI50: > 100 µM (inactive)
SNB-75
  GI50: > 100 µM (inactive)
CCRF-CEM
  GI50: > 100 µM (inactive)
MOLT-4
  GI50: > 100 µM (inactive)
SNB-78
  GI50: > 100 µM (inactive)
SR
  GI50: > 100 µM (inactive)
OVCAR-5
  GI50: > 100 µM (inactive)
DLD-1
  GI50: > 100 µM (inactive)
SK-OV-3
  GI50: > 100 µM (inactive)
NCI-H23
  GI50: > 100 µM (inactive)
HT-29
  GI50: > 100 µM (inactive)
HCT-15
  GI50: > 100 µM
XF498
  GI50: > 100 µM (inactive)
786-0
  GI50: > 100 µM (inactive)
SNB-19
  GI50: > 100 µM (inactive)
IGROV-1
  GI50: > 100 µM (inactive)
LXFL 529
  GI50: > 100 µM (inactive)

## COC(=O)C1CSC(c2csc(CCN)n2)=N1 (stereo unspecified)
OVCAR-4
  GI50: > 100 µM (inactive)
SN12C
  GI50: > 100 µM (inactive)
CAKI-1
  GI50: > 100 µM (inactive)
K562
  GI50: > 100 µM (inactive)
UO-31
  GI50: > 100 µM (inactive)
UACC-62
  GI50: > 100 µM (inactive)
SK-MEL-5
  GI50: > 100 µM (inactive)
SK-MEL-2
  GI50: > 100 µM (inactive)
NCI-H226
  GI50: > 100 µM (inactive)
SF-295
  GI50: > 100 µM (inactive)
HOP-18
  GI50: > 100 µM (inactive)
HCT-116
  GI50: > 100 µM (inactive)
SW-620
  GI50: > 100 µM (inactive)
ACHN
  GI50: > 100 µM (inactive)
COLO 205
  GI50: > 100 µM (inactive)
DMS-114
  GI50: > 100 µM (inactive)
Malme-3M
  GI50: > 100 µM (inactive)
U-251
  GI50: > 100 µM (inactive)
SK-MEL-28
  GI50: > 100 µM (inactive)
HL-60
  GI50: > 100 µM (inactive)
TK-10
  GI50: > 100 µM (inactive)
UACC-257
  GI50: > 100 µM (inactive)
HOP-92
  GI50: > 100 µM (inactive)
NCI-H460
  GI50: > 100 µM (inactive)
RPMI-8226
  GI50: > 100 µM (inactive)
KM12
  GI50: > 100 µM (inactive)
KM-20L2
  GI50: > 100 µM (inactive)
DMS-273
  GI50: > 100 µM (inactive)
LOX IMVI
  GI50: > 100 µM (inactive)
EKVX
  GI50: > 100 µM (inactive)
M14
  GI50: > 100 µM (inactive)
OVCAR-3
  GI50: > 100 µM (inactive)
OVCAR-8
  GI50: > 100 µM (inactive)
A549
  GI50: > 100 µM (inactive)
M19-MEL
  GI50: > 100 µM (inactive)
HCC 2998
  GI50: > 100 µM (inactive)
SNB-75
  GI50: > 100 µM (inactive)
CCRF-CEM
  GI50: > 100 µM (inactive)
MOLT-4
  GI50: > 100 µM (inactive)
NCI-H522
  GI50: > 100 µM (inactive)
SNB-78
  GI50: > 100 µM (inactive)
SR
  GI50: > 100 µM (inactive)
OVCAR-5
  GI50: > 100 µM (inactive)
SK-OV-3
  GI50: > 100 µM (inactive)
NCI-H23
  GI50: > 100 µM (inactive)
RXF 393
  GI50: > 100 µM (inactive)
HT-29
  GI50: > 100 µM (inactive)
HCT-15
  GI50: > 100 µM
XF498
  GI50: > 100 µM (inactive)
786-0
  GI50: > 100 µM (inactive)
SNB-19
  GI50: > 100 µM (inactive)
IGROV-1
  GI50: > 100 µM (inactive)
LXFL 529
  GI50: > 100 µM (inactive)

## O=c1n(CCCCn2c(=O)n(CC3CS3)c3ccccc32)c2ccccc2n1CC1CS1 (stereo unspecified)
OVCAR-4
  GI50: 15.5 µM (inactive)
SN12C
  GI50: 14.1 µM (inactive)
CAKI-1
  GI50: 17.3 µM (inactive)
K562
  GI50: 15.7 µM (inactive)
UACC-62
  GI50: > 10 µM (inactive)
HOP-62
  GI50: 22.3 µM (inactive)
SK-MEL-2
  GI50: 11.9 µM (inactive)
HCT-116
  GI50: 18.7 µM (inactive)
SW-620
  GI50: 18.6 µM (inactive)
ACHN
  GI50: 25.1 µM (inactive)
COLO 205
  GI50: 19 µM (inactive)
DMS-114
  GI50: > 10 µM (inactive)
Malme-3M
  GI50: 10.5 µM (inactive)
HL-60
  GI50: 2.17 µM (inactive)
HOP-92
  GI50: 23.9 µM (inactive)
RPMI-8226
  GI50: 10.9 µM (inactive)
KM12
  GI50: 11.4 µM (inactive)
DMS-273
  GI50: 19.2 µM (inactive)
SF-268
  GI50: 24.9 µM (inactive)
LOX IMVI
  GI50: 3.14 µM (inactive)
EKVX
  GI50: 24.3 µM (inactive)
M14
  GI50: 8.99 µM (inactive)
OVCAR-3
  GI50: 10.4 µM (inactive)
M19-MEL
  GI50: 19.2 µM (inactive)
HCC 2998
  GI50: 19.7 µM (inactive)
SNB-75
  GI50: 26.1 µM (inactive)
CCRF-CEM
  GI50: 17.1 µM (inactive)
MOLT-4
  GI50: 1.95 µM (inactive)
NCI-H522
  GI50: 16.6 µM (inactive)
SR
  GI50: 3.87 µM (inactive)
SK-OV-3
  GI50: 58.1 µM (inactive)
HCT-15
  GI50: 18.2 µM
XF498
  GI50: 6.56 µM (inactive)
IGROV-1
  GI50: 13.5 µM (inactive)
LXFL 529
  GI50: 14.3 µM (inactive)
